Test system: blood sugar
Experiment: Test Example 1: average fall of the blood sugar in rabbits after insulin
Format: in vivo, New Zealand rabbits
Settings: subcutaneous 2 IU/rabbit, level at 0 min = 100%
Procedure: The composition contained insulin at […] (5 insulin units (IU)/rabbit).
The composition was nasally administered to six male New Zealand rabbits at one time, and the average fall of the blood sugar was measured at 0, 15, 30, 60, 120 and 180 min after administration.
For comparison, 2 IU/rabbit of insulin was subcutaneously injected to six male New Zealand rabbits and the average fall of the blood sugar was measured at 0, 60, 120, 240, and 360 min after administration.
The results are shown in Table 1, in which the average fall of the blood sugar is indicated in percentage assuming the blood sugar level at 0 min to be 100%.

## insulin [Control]
0 min after administration
  Blood sugar level (% of 0-min level): 100%
60 min after administration
  Blood sugar level (% of 0-min level): 57%
120 min after administration
  Blood sugar level (% of 0-min level): 56%
240 min after administration
  Blood sugar level (% of 0-min level): 84%
360 min after administration
  Blood sugar level (% of 0-min level): 94%

Source: patent publication US5908824A, “Nasally administrable compositions containing physiologically active peptides” (Dott Research Laboratory, priority 1995, dated 1999)
